Reference: publication PMC10179972, “New Hybrid Tetrahydropyrrolo[3,2,1-ij]quinolin-1-ylidene-2-thioxothiazolidin-4-ones as New Inhibitors of Factor Xa and Factor XIa: Design, Synthesis, and In Silico and Experimental Evaluation” (Molecules, 2023)

Columns and labels:
factor Xa [1] = target: T1, factor Xa (Homo sapiens, UniProt P00742); conditions: cited from earlier work
T1 construct: followed by the addition of factor Xa (final concentration, 2.5 nmol·L^–1)

factor XIa [2] = target: T2, factor XIa (Homo sapiens, UniProt P03951); set-up: method as in earlier work; conditions: known actives used in validation of docking protocol, ref [1]-[6] of Table S2, column Ligand ID, cited from earlier work
factor XIa [3] = target: T2, factor XIa; assay: Inhibition of factor XIa, kinetics of hydrolysis of chromogenic substrate S2366; format: biochemical; conditions: 30 μM compound; factor XIa 0.8 nmol/L, S2366 200 μmol/L, pH 8.0; read-out: Percent Inhibition at 30 μM, XIa
Protocol: Compounds 12, 14 and 16 were evaluated for their anticoagulant activity against factors Xa and Xia, and the results are presented in Table 1. For the best Xa and XIa inhibitors, additional measurements were performed to determine the IC50 values. We measured the kinetics of the hydrolysis of the specific substrates S2765 or S2366 by factors Xa and XIa, respectively, in the buffer solution and in the presence of various concentrations of compounds.
(§1) A specific low-molecular-weight chromogenic substrate, S2765 (Z-D-Arg-Gly-Arg-pNA·2HCl), was used in the case of factor Xa, while the substrate S2366 (pyroGlu-Pro-ArgpNA·HCl) (both substrates from Chromogenix, USA) was used for factor XIa.
(§2) A buffer containing 140 mM NaCl, 20 mM HEPES, and 0.1% PEG 6000 (pH 8.0) was placed in the wells of a 96-well plate, followed by the addition of factor Xa (final concentration, 2.5 nmol·L^–1) or XIa (final concentration 0.8 nmol·L^–1), the substrate S2765 (final concentration, 200 μmol·L^–1) or S2366 (final concentration, 200 μmol·L^–1), and a solution of the test compound in DMSO (final concentration, 30 μmol·L^–1; the DMSO content in the well was no more than 2%). The kinetics of the formation of p-nitroaniline were measured using a THERMOmax Microplate Reader (Molecular Devices Corporation, USA) using the absorption of light with a wavelength of 405 nm. The initial rate of substrate degradation was determined from the initial slope of the 4-nitroaniline-formation curve. The rate of substrate degradation by the enzyme in the presence of the inhibitor was expressed as a percentage relative to the rate of substrate degradation in the absence of the inhibitor. The data obtained were processed using GraphPad Prism and OriginPro 8 software.

factor Xa [4] = target: T1, factor Xa; assay: Inhibition of factor Xa, kinetics of hydrolysis of chromogenic substrate S2765; format: biochemical; conditions: 30 μM compound; factor Xa 2.5 nmol/L, S2765 200 μmol/L, pH 8.0; read-out: Percent Inhibition at 30 μM, Xa
Protocol: We measured the kinetics of the hydrolysis of the specific substrates S2765 or S2366 by factors Xa and XIa, respectively, in the buffer solution and in the presence of various concentrations of compounds.
as §1
as §2, with “The kinetics of the formation of p-nitroaniline were measured using a THERMOmax Microplate Reader (Molecular Devices Corporation, USA) using the absorption of light with a wavelength of 405 nm.” left out

T1 sequence (P00742 235-488 limits assumed): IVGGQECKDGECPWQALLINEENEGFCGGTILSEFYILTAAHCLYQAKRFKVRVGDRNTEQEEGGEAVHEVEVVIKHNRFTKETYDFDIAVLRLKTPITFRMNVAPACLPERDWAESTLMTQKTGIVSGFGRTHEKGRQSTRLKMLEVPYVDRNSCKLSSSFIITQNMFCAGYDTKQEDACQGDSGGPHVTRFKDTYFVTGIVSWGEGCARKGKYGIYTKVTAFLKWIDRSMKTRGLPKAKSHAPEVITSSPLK
T1 sequence (P00742 41-179 partner limits assumed): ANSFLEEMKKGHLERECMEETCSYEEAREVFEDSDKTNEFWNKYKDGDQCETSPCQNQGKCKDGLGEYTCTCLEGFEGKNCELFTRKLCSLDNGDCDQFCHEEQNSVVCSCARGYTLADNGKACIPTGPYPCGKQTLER
T2 sequence (P03951 388-625 limits assumed): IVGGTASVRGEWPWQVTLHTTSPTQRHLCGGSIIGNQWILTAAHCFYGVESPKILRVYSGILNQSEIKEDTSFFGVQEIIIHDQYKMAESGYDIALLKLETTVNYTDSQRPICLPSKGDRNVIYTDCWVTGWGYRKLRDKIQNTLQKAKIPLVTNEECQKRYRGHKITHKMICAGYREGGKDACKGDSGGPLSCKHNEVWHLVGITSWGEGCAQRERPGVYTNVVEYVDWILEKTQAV
T2 sequence (P03951 19-387 partner limits assumed): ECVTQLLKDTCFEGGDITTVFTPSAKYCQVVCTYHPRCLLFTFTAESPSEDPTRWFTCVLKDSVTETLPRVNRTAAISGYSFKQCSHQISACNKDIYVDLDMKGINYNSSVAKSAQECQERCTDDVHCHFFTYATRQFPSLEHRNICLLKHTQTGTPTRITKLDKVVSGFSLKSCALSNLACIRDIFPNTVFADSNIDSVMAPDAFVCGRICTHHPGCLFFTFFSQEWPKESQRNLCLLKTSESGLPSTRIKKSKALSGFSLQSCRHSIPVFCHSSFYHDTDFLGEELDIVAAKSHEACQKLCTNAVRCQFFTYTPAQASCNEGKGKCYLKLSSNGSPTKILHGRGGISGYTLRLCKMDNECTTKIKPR

inhibition at 30 µM (factor XIa [3]) | inhibition at 30 µM (factor Xa [4]) | Structure (SMILES) | also measured
 |  | CS(=O)(=O)c1ccccc1-c1ccc(N2CC[C@H](NS(=O)(=O)CCc3ccc(Cl)s3)C2=O)c(F)c1 [GSV] | IC50 (factor Xa [1]; known actives of crystal complexes used in validation of docking protocol, no reference given, read-out: IC50, factor Xa (Table S2)): 0.2 nM
 |  | CC(C)CC(=O)Nc1cc(-c2ccc(C(N)=O)cc2C(=O)O)cc([C@@H]2C[C@](C)(c3ccccc3)c3cc(C(=N)N)ccc3N2)c1 [BMS-654457] | Ki (factor XIa [2]; read-out: Ki, factor XIa (Table S2, values in brackets)): 0.2 nM
 |  | Cc1cc(=O)[nH]c2ccc(Cl)cc12 [MVN] | IC50 (factor XIa [2]): > 1.1 nM
5% | 18% | CCN1C(=O)/C(=C2/C(=O)N3c4c2cc(OC)cc4C(C)CC3(C)C)SC1=S (stereo not shown) [12f, (Z)-3-Ethyl-5-(8-methoxy-4,4,6-trimethyl-2-oxo-5,6-dihydro-4H-pyrrolo[3,2,1-ij]quinolin-1(2H)-ylidene)-2-thioxothiazolidin-4-one] | 
5% | 31% | Cc1cc2c3c(c1)C(C)CC(C)(C)N3C(=O)/C2=C1\NC(=S)NC1=O (stereo not shown) [16b, (Z)-4,4,6,8-Tetramethyl-1-(5-oxo-2-thioxoimidazolidin-4-ylidene)-5,6-dihydro-4H-pyrrolo[3,2,1-ij]quinolin-2(1H)-one] | 
17% | 49% | C#CCN1C(=O)/C(=C2/C(=O)N3c4c2cc(F)cc4C(C)(c2ccc(Cl)cc2)CC3(C)C)SC1=S (stereo not shown) [14b, (Z)-5-(6-(4-Chlorophenyl)-8-fluoro-4,4,6-trimethyl-2-oxo-5,6-dihydro-4H-pyrrolo[3,2,1-ij]quinolin-1(2H)-ylidene)-3-(prop-2-yn-1-yl)-2-thioxothiazolidin-4-one] | 
0% | 18% | CCN1C(=O)/C(=C2/C(=O)N3c4c2cc(F)cc4C(C)(c2ccc(Cl)cc2)CC3(C)C)SC1=S (stereo not shown) [12m, (Z)-5-(6-(4-Chlorophenyl)-8-fluoro-4,4,6-trimethyl-2-oxo-5,6-dihydro-4H-pyrrolo[3,2,1-ij]quinolin-1(2H)-ylidene)-3-ethyl-2-thioxothiazolidin-4-one] | 

Structure (SMILES) | inhibition at 30 µM (factor XIa [3]) | inhibition at 30 µM (factor Xa [4]) | also measured
O=C(NC[C@H]1CN(c2ccc(N3CCOCC3=O)cc2)C(=O)O1)c1ccc(Cl)s1 [Rivaroxaban, reference compound] | 8% |  | factor-Xa inhibitor potency in words (factor Xa [1]): subnanomolar
